Like-named read-outs stand apart in the source and are kept apart here.
Key:
cats = assay: Delayed type hypersensitivity (DTH) response in cats; type: in vivo, Tabby cats; settings: for DTH response to vaccine: week 6, 72 h post-injection
[1] = test system: peripheral blood mononuclear cells (PBMC); assay: Mitogen-induced lymphocyte proliferation by PBMC, whole blood culture, dogs; type: in vivo, Beagle dogs
Method: Blood collected on weeks 0, 2, 4, 8 and 12 were used to assess mitogen-induced lymphocyte proliferation by peripheral blood mononuclear cells (PBMC). Whole blood culture was used in order to mimic in vivo conditions. Mitogens used were phytohemagglutinin (PHA), concanavalin A (Con A) and pokeweed mitogen (PWM). Whole blood was thoroughly mixed and then diluted 1:12 with RPMI-1640 containing 25 mM of Hepes, penicillin (100 U/mL) and streptomycin (100 μg/mL) (Sigma, St. Louis, Mo.). […] Triplicate 150 μL volumes were pipetted into 96-well round bottom plates and 50 μl of the appropriate mitogens added. The final concentrations of the mitogens in culture were 2 and 10 μg/mL for PHA, 1 and 5 μg/mL for Con A and 0.5 and 2.5 μg/mL for PWM. The two mitogen concentrations gave maximum (the higher mitogen concentration) and suboptimal (lower mitogen concentration) proliferative responses in preliminary studies using blood from similar animals. The mixture was incubated for 72 h at 37° C. in a humidified incubator under a 5% CO2 atmosphere. Four hours prior to the termination of the incubation period, 20 μL of [^3H]-thymidine (1 [μCi/well) were added. Cells were harvested onto fiberglass filters and radioactivity was counted by liquid scintillation. Proliferation response of PBMC was expressed as stimulation index (cpm of stimulated cultures/cpm of unstimulated cultures).

[2] = Body weight and food intake of cats fed lutein; type: in vivo, Tabby cats
Method: Fifty-six female Tabby cats (10 months old) were randomly assigned to be fed 0, 1, 5, or 10 mg lutein daily for 12 weeks. The lutein contained 76.66% lutein and 5.23% zeaxanthin and was incorporated into the basal diet (see Table 3) to a final concentration of 250 mg lutein/kg of diet.
Prior to being fed to the cats, the lutein-containing diet was mixed with additional basal diet to achieve the desired lutein concentration. The final diets were mixed weekly and stored at −20° C. in sealed containers undernitrogen gas. […] Food and water were available ad libitum. Cats were housed (7 cats/pen; 1.5×5.0 m) in a temperature (20 to 22° C.) and light (14 h light) controlled facility.

IL-2 = IL-2 production by PHA-stimulated whole blood cultures, dogs; type: in vivo, Beagle dogs
Method: Whole blood was diluted 1:2 with RPMI-1640 supplemented with Hepes and antibiotics (described earlier) and 400 μL of diluted blood were pipetted into 48-well plates (Costar, Cambridge, Mass.). Cells were stimulated with PHA (400 μL of a 5 μg/mL solution) for 48 hours at […] in a 5% CO2 atmosphere. The plates were centrifuged at 200×g for 10 minutes and the supernatant was frozen at −80° C. The IL-2 content of the culture supernatant was determined in triplicate by ELISA (Intergen, Purchase, N.Y.). The polyclonal anti-human IL-2 cross-reacted with canine IL-2 and recombinant human IL-2 was used as the standard.

[3] = parameters: species or system Beagle dogs; settings: dog, in vivo
Method: Fifty six female Beagle dogs (17 to 18 months old; average body weight 11.4±0.4 kg) were randomly assigned to be supplemented daily with 0, 5, 10 or 20 mg lutein for 17 weeks. The lutein contained 76.66% lutein and 5.23% zeaxanthin. The lutein supplement was resuspended in soybean oil to the appropriate concentration and 1 mL administered perorally at 0800 h daily. Food (200 g/dog/d) was offered immediately after the lutein supplementation. The basal diet shown in Table 1 below met or exceeded the requirements for all essential nutrients (NRC 1985).
All dogs were housed in 2×2 m pens (2 dogs/pen) in a temperature (20 to 22° C.) and light (14 h light) controlled facility. Body weight was recorded at weeks 0, 6, and 12.

[4] = parameters: species or system Tabby cats; settings: in vivo
Method: Blood was collected by jugular venipuncture into heparinized evacuated tubes on weeks 0, 2, 4, 8 and 12 and aliquots used for HPLC analysis and for assessing immune responses.
Plasma lutein, retinol and α-tocopherol were analyzed by reverse phase HPLC. Briefly, plasma protein was precipitated with an equal volume of ethanol containing 0.1% butylated hydroxytoluene (BHT) (Aldrich Chemical Co., Milwaukee, Wis.). The mixture was extracted with 5 mi of a 1:1 mixture of petroleum ether:anhydrous diethyl ether and the dried residue resuspended in mobile phase. The mobile phase was a mixture of acetonitrile, methanol and chloroform (47:47:6, v/v/v). The internal standard used was retinyl acetate (Sigma Chem. Co., St. Louis, Mo.). Samples were eluted on a 5 μm C18 reverse phase column (3.9×150 mm; Resolve, Millipore Corp., Milford Mass.) with a flow rate of 1.0 ml/min. The identity of the eluted compounds was verified by comparing their absorption spectra with those of standard compounds.

dogs = assay: Delayed type hypersensitivity (skin induration) response in dogs; type: in vivo, Beagle dogs; settings: for DTH response to PHA / DTH response to vaccine: dogs
Method: Skin induration response was assessed in all dogs on weeks 0, 6, and 12. Dogs were injected intradermally in the flank area with saline (8.5 g/L; control), an attenuated polyvalent vaccine containing canine distemper virus, canine adenovirus type-2, canine parainfluenza virus and parvovirus (Vanguard 5, Smithkline Beacham, West Chester, Pa.; specific antigen), and PHA (0.5 g/L; nonspecific antigen). The doses of vaccine and PHA used were previously determined to provide optimal skin response in Beagle dogs of similar age. The injection site was clipped and wiped with 70% ethyl alcohol. The injection volume was 100 μL. Skin induration was measured at 0, 24, 48 and 72 h post-injection with the aid of a pressure-sensitive digital micrometer (Mitsutoyo, Tokyo, Japan) and response was expressed as a percentage of skin thickness measured at 0 h.

Splenocytes = settings: splenocytes from mice injected peritoneally; cited from earlier work

With `CC1=C[C@H](O)CC(C)(C)[C@H]1/C=C/C(C)=C/C=C/C(C)=C/C=C/C=C(C)/C=C/C=C(C)/C=C/C1=C(C)C[C@@H](O)CC1(C)C` [lutein] the “DTH response to vaccine” value (cats; cats fed 5 or 10 mg lutein) was “significantly higher”, the “DTH response to Con A” value (cats; cats, week 6) was “no significant dietary effect” and the “DTH response to vaccine” value (cats; cats, all doses) was “significant dose-related”. The “DTH response to Con A and vaccine” value (cats; cats, week 12) was “no significant treatment difference”, the “Spontaneous proliferation by unstimulated PBMC” value ([1]; dogs) was “did not significantly influence” and the “PWM-stimulated PBMC proliferative response” value ([1]; dogs fed 10 mg lutein, week 8) was “higher”. For the same compound, the “Con A-stimulated PBMC proliferation” value ([1]; dogs fed 10 mg lutein, weeks 8 and 12, 5 μg/mL Con A) was “higher”, the “PHA-stimulated PBMC proliferative response vs unsupplemented” value ([1]; dogs fed 20 mg lutein, week 8, P<0.01) was “enhanced” and the “PWM-stimulated PBMC proliferation vs unsupplemented controls” value ([1]; dogs fed 20 mg lutein, week 8 and 12, both concentrations of PWM) was “significantly higher”. The “PHA-stimulated PBMC proliferative response vs unsupplemented” value ([1]; dogs fed 20 mg lutein, week 12, 2 and 10 μg/mL PHA, P<0.01) was “enhanced”, the “Con A-stimulated PBMC proliferation” value ([1]; dogs fed 20 mg lutein, weeks 8 and 12, both concentrations of Con A) was “higher” and the “PHA-stimulated PBMC proliferation” value ([1]; dogs fed 5 and 10 mg lutein, week 8, 10 μg/ml PHA) was “higher”. For the same compound, the “PHA-stimulated PBMC response” value ([1]; dogs, weeks 0 and 4) was “no significant effect”, the “PWM-stimulated PBMC proliferation” value ([1]; dogs, weeks 0 and 4) was “no significant treatment difference” and the “Food intake among treatments” value [2] was “not significantly different”. For the same compound, the Body weight average ([2]; across all diets and periods) was 1.41 ± 0.04 kg, the “Average daily food intake” value ([2]; across the study period) was 83.2 g and the “Effect on changes in body weight” value ([2]; during the experimental period) was “did not significantly affect”. For the same compound, the “Production of IL-2 by PHA-stimulated PBMC among dietary treatments” value (IL-2; throughout the experimental period) was “did not differ significantly”, the “Concentration of IL-2 in culture medium, average” value (IL-2; throughout the study) was 15.7 ± 0.4 ng/mL and the Body weight average [3] was 11.4 ± 0.4 kg. The “Effect on changes in body weight” value [3] was “did not significantly affect”, the Plasma lutein [4] was “increased in a dose-dependent manner” and the “DTH response to PHA vs unsupplemented dogs” value (dogs; dogs fed 20 mg lutein, week 12) was “significantly higher”. The “DTH response to PHA” value (dogs; week 6, 48 and 72 h) was “no significant treatment difference”, the “DTH response to vaccine” value (dogs; week 6, 48 and 72 h post-injection) was “dose-related” and the “DTH response to vaccine” value (dogs; week 6, 24 h) was “not significant”. The “DTH response to PHA” value (dogs; week 6, 24 h post-injection) was “dose-related”, the “DTH response to vaccine” value (dogs; week 12) was “no significant dietary effect” and the “DTH response to PHA” value (dogs; week 12, 24, 48 and 72 h, all doses) was “general dose-dependent increase”. For the same compound, the “Antibody response to T-dependent antigens” value (Splenocytes) was “enhanced”.

Source: patent publication US20010006673A1, “LUTEIN- CONTAINING SUPPLEMENT AND PROCESS FOR ENHANCING IMMUNE RESPONSE IN ANIMALS” (priority 1998, published 2001)
